From patent US20050152835A1, “Technetium-99M glucarate methods of use for monitoring tissues” (priority 2003, published 2005)

How the values were obtained:
[1] = tested on: MCF7/D40 cells; test: Drug resistance of MCF7/D40 cells relative to MCF7/S; type: cell-based, human
[2] = tested on: MCF7/D40 tumors; test: Biodistribution in mice bearing MCF7/D40 tumors; type: in vivo, SCID mice
Protocol: (§1) Tumor cell lines used. MCF7/S: Cells are parental, drug (doxorubicin) sensitive, breast carcinoma cells. MCF7/D40: Cells were generated in vitro by successive culturing parental MCF7 cells in slowly increasing concentrations of doxorubicin with a total selection time of 31 months. Twenty-eight SCID mice were studied. MCF7/S or MCF7/D40 tumors were grown for 10-14 days after subcutaneous injection of 1×10^6 cells into the right thigh. Groups of mice with the xenografted tumors included: (MCF7/S group: MIBI: n=9; GLA: n=8) and (MCF7/D40 group: MIBI: n=6; GLA: n=5).
(§2) ^99mTc-GLA or ^99mTc-MIBI (5-8 mCi, 185-296 MBq) was injected via a jugular vein catheter. Dynamic images were acquired for 2 hours. Twenty-four projections were obtained, one from each camera. Each scintillation event within the camera's NaI crystal was registered as the digitized outputs from the camera's four photomultiplier tubes. The four photomultiplier outputs were compared to a 20-bit look-up table derived from a calibration procedure that involved moving a collimated source across the camera face.
(§3) Tumors and organs were harvested and counted in a dose calibrator. The percent injected dose per gram (% ID/g) was calculated. Membrane preparations made from MCF7/S and MCF7/D40 tumors were immunoblotted with the mouse monoclonal antibody C219 against Pgp followed by a secondary antibody, which was detected by chemiluminescence. […] No immunodetectable MDR1 Pgp was presented in MCF7/S cells.

[3] = tested on: MCF7/S tumors; test: Biodistribution in mice bearing MCF7/S tumors; type: in vivo, SCID mice
Protocol: as §1, §2, §3

[4] = tested on: MCF7/D40 tumor xenograft; test: FASTSPECT dynamic imaging and tumor washout kinetics, drug-resistant (Pgp positive) xenograft; type: in vivo, SCID mice; details: for time window after injection in which tumor could be localized/visualized: then activity dropped to background
Protocol: as §1
(§4) The dynamic imaging system SPECT consisted of 24 small modular gamma cameras. Each modular camera consists of a 10 cm×10 cm NaI(Tl) scintillation crystal, 4 square (5 cm×5 cm) Hamamatsu photomultiplier tubes. The system included a cylindrical aperture with twenty four 1-mm diameter pinholes drilled in the aperture. A point source in the center of the field of view is projected simultaneously to the center of each camera. Total magnification is 3.5 in a 3.0 cm×3.2 cm×3.2 cm field of view. The spatial resolution of the system is about 1.0 mm, with a sensitivity of 13.3 cps/μCi.
as §2
(§5) Tumor image reconstruction was performed using 100 iterations of the maximum-likelihood expectation-maximization (ML-EM) algorithm. Using SlicerDicer software, three-dimensional images were computed to provide images in a 33×49×49 voxels format, and generate tomographic transaxial, coronal and sagittal slices with one-pixel thickness (1.0 mm). Regions of interest (ROI) over the tumors were created and applied to the dynamic images for determining time-activity curves. The percent washout rate relative to the peak uptake of the tumors were calculated.

[5] = tested on: MCF7/S tumor xenograft; test: FASTSPECT dynamic imaging and tumor washout kinetics, drug-sensitive xenograft; type: in vivo, SCID mice
Protocol: as §1, §4, §2, §5

[6] = tested on: breast cancer; details: cited from earlier work
[7] = tested on: plasmocytoma (localized myeloma); test: Scintigraphy of a patient with plasmocytoma of T8; type: in vivo, human; details: for scan finding at diagnosis: patient with lytic lesion of T8, posterior view
Protocol: A patient complaining of invalidation pain in the spine (mid-thorax) for about two months. Peak of monoclonal IgG-k in serum. Bence-Jones protein in urine. Spine CT. lytic lesion of T8, with soft tissue infiltration. […] Uptake was obvious in the early images, 15 and 30 min p.i., late acquisition, 6 hr p.i., made the tracer uptake much more obvious.

[8] = target: T1, adenosine A1 receptor (Rattus norvegicus, UniProt P25099); test: Adenosine receptor-mediated cardioprotection in rat hearts with ischemia-reperfusion, assessed by 99mTc-glucarate imaging; type: in vivo
T1 construct: from tissue; host or cells: living rat, heart (myocardium) in vivo
T1 sequence (P25099 1-326): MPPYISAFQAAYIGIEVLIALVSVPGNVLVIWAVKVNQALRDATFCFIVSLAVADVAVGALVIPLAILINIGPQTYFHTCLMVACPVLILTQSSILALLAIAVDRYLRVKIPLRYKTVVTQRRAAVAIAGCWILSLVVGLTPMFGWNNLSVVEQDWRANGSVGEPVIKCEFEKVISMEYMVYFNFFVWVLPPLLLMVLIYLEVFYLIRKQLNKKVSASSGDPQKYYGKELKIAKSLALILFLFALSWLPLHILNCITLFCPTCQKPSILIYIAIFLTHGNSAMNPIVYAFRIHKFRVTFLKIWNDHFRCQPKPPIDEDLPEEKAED
Protocol: Experimental groups in this example included: Group-I (IR30, n=11): Animals subjected to a treatment of 30-min regional myocardial ischemia and 30-min reperfusion by ligating and releasing the left coronary artery (LCA). Group-II: (IPC Group, n=6): Rats were preconditioned with a sequence of 6 cycles of 4-min LCA occlusion and 4-min re-flow; 10 min later, the rats underwent a 30-min LCA occlusion followed by 30-min re-flow. Group-III (CCPA, n=6): rat chests were opened for the equivalent time for IPC in Group-II. Ten minutes prior to 30-min LCA occlusion and 30-min reperfusion, CCPA (40 μg/kg) was intravenously injected with 5 cycles of 4-min infusion and 4-min no infusion. Group-IV (SPT, n=5): animals subjected to IPC as the protocol in Group-II, SPT (10 mg/kg) was intravenously infused 2-min before and during subsequent ischemia-reperfusion.
Treatments in this example consisted of control (IR30, n=8): no preconditioning; equivalent open-chest time; IPC (n=6): 4-min LCA occlusion, 4-min reflow, 5 cycles; CCPA (n=6): 4-min IV infusion, 4-min no infusion, 5 cycles; SPT (n=4): IPC first, SPT IV infusion 2 min before and during LCA occlusion and re-flow.

[9] = Table 2, MCF7/D40 mice, 2 hours after injection
[10] = Table 4 (Example 3), MCF7/D40 mice
[11] = Table 2, MCF7/S mice, 2 hours after injection
[12] = Table 4 (Example 3), MCF7/S mice

SMILES: COc1cccc2c1C(=O)c1c(O)c3c(c(O)c1C2=O)C[C@@](O)(C(=O)CO)C[C@@H]3O[C@H]1C[C@H](N)[C@H](O)[C@H](C)O1 [doxorubicin]
- resistance of MCF7/D40 compared to MCF7/S [1]: 40 fold

SMILES: [C-]#[N+]CC(C)(C)OC.[C-]#[N+]CC(C)(C)OC.[C-]#[N+]CC(C)(C)OC.[C-]#[N+]CC(C)(C)OC.[C-]#[N+]CC(C)(C)OC.[C-]#[N+]CC(C)(C)OC.[Tc] [^99mTc-sestamibi, reference compound]
- Biodistribution, blood [2, 9]: 0.07 ± 0.01 % ID/gm
- Biodistribution, heart [2, 9]: 9.78 ± 1.65 % ID/gm
- Biodistribution, kidneys [2, 9]: 17.71 ± 3.13 % ID/gm
- Biodistribution, liver [2, 9]: 7.67 ± 1.52 % ID/gm
- Biodistribution, lung [2, 9]: 0.61 ± 0.12 % ID/gm
- Biodistribution, muscle [2, 9]: 1.09 ± 0.32 % ID/gm
- Biodistribution, tumor [2, 9]: 0.27 ± 0.05 % ID/gm
- Biodistribution, blood [2, 10]: 0.07 ± 0.01 % ID/g
- Biodistribution, heart [2, 10]: 9.84 ± 1.39 % ID/g
- Biodistribution, kidneys [2, 10]: 19.63 ± 3.48 % ID/g
- Biodistribution, liver [2, 10]: 8.29 ± 1.43 % ID/g
- Biodistribution, lung [2, 10]: 0.61 ± 0.10 % ID/g
- Biodistribution, muscle [2, 10]: 1.08 ± 0.27 % ID/g
- Biodistribution, tumor [2, 10]: 0.27 ± 0.05 % ID/g
- Tumor/Blood ratio [2, 10]: 3.93 ± 0.41
- Tumor/Muscle ratio [2, 10]: 0.31 ± 0.05
- Biodistribution, blood [3, 11]: 0.06 ± 0.01 % ID/gm
- Biodistribution, heart [3, 11]: 10.61 ± 0.89 % ID/gm
- Biodistribution, kidneys [3, 11]: 21.32 ± 2.03 % ID/gm
- Biodistribution, liver [3, 11]: 7.02 ± 1.01 % ID/gm
- Biodistribution, lung [3, 11]: 0.95 ± 0.16 % ID/gm
- Biodistribution, muscle [3, 11]: 1.37 ± 0.12 % ID/gm
- Biodistribution, tumor [3, 11]: 0.64 ± 0.07 % ID/gm
- Biodistribution, blood [3, 12]: 0.06 ± 0.01 % ID/g
- Biodistribution, heart [3, 12]: 10.61 ± 0.89 % ID/g
- Biodistribution, kidneys [3, 12]: 21.32 ± 2.03 % ID/g
- Biodistribution, liver [3, 12]: 7.02 ± 1.01 % ID/g
- Biodistribution, lung [3, 12]: 0.95 ± 0.16 % ID/g
- Biodistribution, muscle [3, 12]: 1.37 ± 0.12 % ID/g
- Biodistribution, tumor [3, 12]: 0.64 ± 0.07 % ID/g
- Tumor/Blood ratio [3, 12]: 13.97 ± 2.89
- Tumor/Muscle ratio [3, 12]: 0.48 ± 0.05
- two-hour fractional washout (% peak activity) [4]: 71.7±1.7%
- time window after injection in which tumor could be localized/visualized [4]: 2 to 4 min
- time window after injection in which tumor could be localized/visualized ([4]; listed as 99mTc-MIBI): 2 to 3 min
- two-hour fractional washout (% peak activity) [5]: 50.2±5.3%
- time after injection until which tumor stayed visualized/detectable ([5]; FASTSPECT, 120 min acquisition): 120 min
- negative predictive value ([6]; in vivo): 83.4%
- overall institutional sensitivity for breast cancer detection ([6]; in vivo): 75.4%
- overall institutional specificity for breast cancer detection ([6]; in vivo): 82.7%
- positive predictive value ([6]; in vivo): 74.5%
- sensitivity for tumors under 1 cm in size ([6]; tumors under 1 cm): 48.2%
- scan finding at diagnosis [7]: negative for bone marrow infiltration

SMILES: OC[C@H]1O[C@@H](n2cnc3c(NC4CCCC4)nc(Cl)nc32)[C@H](O)[C@@H]1O [CCPA, 2-chloro-N6-cyclopentyladenosine]
- effect on cardioprotection of ischemic preconditioning (IPC) ([8]; 40 μg/kg i.v. instead of IPC, before 30-min LCA occlusion and 30-min reperfusion): simulated

SMILES: O.O.O=P([O-])([O-])CP(=O)([O-])[O-].[99Tc+4] [^99mTc-MDP]
- scan finding at diagnosis [7]: focally increased uptake corresponding to T8
- scan finding after about 1 year of stabilization and external radiotherapy ([7]; posterior view): inhomogeneous tracer distribution, without clear focally increased uptake

SMILES: Cn1c(=O)c2[nH]c(-c3ccc(S(=O)(=O)O)cc3)nc2n(C)c1=O [SPT, 8-(p-sulfophenyl)-theophylline]
- effect on cardioprotection of ischemic preconditioning (IPC) ([8]; 10 mg/kg i.v. infusion after IPC, before and during ischemia-reperfusion): blocked
